Measured values taken from patent US20180344680A1, “COMPOSITIONS AND METHODS FOR TREATMENT, AMELIORATION, AND PREVENTION OF DIABETES-RELATED SKIN ULCERS” (THE ARIZONA BOARD OF REGENTS ON BEHALF OF THE UNIVERSITY OF …, priority 2015, published 2018).
Entries after “also recorded” stand apart in the source; their conditions may differ.

What was measured:
MMP9 = MMP9 expression in wound skin tissues of STZ mice (immunoblot, IHC); assay type: in vivo, mouse; settings: immunoblot and IHC, day 14
From the text: Diabetes mouse model and treatments. Nrf2^+/+ and Nrf2^-/- C57BL/6 mice were described previously (see, e.g., Jiang T, et al., Diabetes 59:850-860, 2010) and were housed and handled in accordance with the University of Arizona Institutional Animal Care policies. The STZ-induced diabetic model was previously described (see, e.g., Zheng H, et al., Diabetes 60:3055-3066, 2011) and only 8 week old male mice were included in this study. Briefly, three weeks after STZ injections, fasting glucose levels (FGL, 4 h fast) were measured using the AlphaTRAK system (Abbott Laboratory, North Chicago, Ill.) and mice with a FGL higher than or equal to 250 mg/dL were considered diabetic and included in the study (see, e.g., FIG. 2A and FIG. 3A for a detailed timeline). […] Gross wound closure was quantified by ImageJ software, and wound healing was expressed as the percentage of the original wound area that had healed. […] Morphology was assessed by hematoxylin and eosin (H&E) staining (Vector laboratory, Burlingame, Calif.). […] Protein concentration was measured using Quant-iT Protein Assay (Invitrogen) and 150 μg of protein were resolved by SDS-PAGE and immunoblotting analyses with the indicated antibodies.

[1] = tested on: wounds of non-diabetic Nrf2+/+ mice; test: Wound closure in non-diabetic mice; assay type: in vivo, mouse; settings: non-diabetic Nrf2+/+ mice treated with SF or CA vs corn oil; up to 14 days
From the text: Diabetes mouse model and treatments. Nrf2^+/+ and Nrf2^-/- C57BL/6 mice were described previously (see, e.g., Jiang T, et al., Diabetes 59:850-860, 2010) and were housed and handled in accordance with the University of Arizona Institutional Animal Care policies. The STZ-induced diabetic model was previously described (see, e.g., Zheng H, et al., Diabetes 60:3055-3066, 2011) and only 8 week old male mice were included in this study. Briefly, three weeks after STZ injections, fasting glucose levels (FGL, 4 h fast) were measured using the AlphaTRAK system (Abbott Laboratory, North Chicago, Ill.) and mice with a FGL higher than or equal to 250 mg/dL were considered diabetic and included in the study (see, e.g., FIG. 2A and FIG. 3A for a detailed timeline). The mice (n=5-8) were then allocated randomly to each of the indicated treatment groups and received corn oil (control), 12.5 mg/kg SF or 50 mg/kg CA intraperitoneally every two days until skin tissues were harvested. One week after the treatments, the mice were anesthetized, their backs were shaved and cleaned. Two wounds were made with a sterile 6 mm skin biopsy punch (Health link, Jacksonville, Fla.) and covered with 3M Tegaderm pads. […] Gross wound closure was quantified by ImageJ software, and wound healing was expressed as the percentage of the original wound area that had healed. […]

Structure (SMILES)	MMP9 protein expression (MMP9)	wound closure [1]
O=CC=Cc1ccccc1 [CA, Cinnamaldehyde]	restored the protein expression of MMP9 to levels comparable to the Con mice	No statistically significant differences; also recorded: do not show accelerated wound closure
C[S@@+]([O-])CCCCN=C=S [SF, L-sulforaphane]	restored the protein expression of MMP9 to levels comparable to the Con mice	No statistically significant differences; also recorded: do not show accelerated wound closure
